For series [1], the system named is young adult CBA/CaJ mice. As to the kind of experiment: Acoustic startle reflex (ASR) amplitude, startle input-output function, salicylate (SS) tinnitus model. How it is done: (§1) SS can be administrated 2 hours before measuring the behavioral manifestations of tinnitus.
(§2) Behavioral assay: The presence of tinnitus may be indicated by a failure to respond to silence embedded in sound stimuli near the tinnitus frequency. A sound pulse-evoked acoustic startle reflex (ASR) is commonly used to determine if an animal can detect silent gaps in narrow-band noise and this method appears to detect tinnitus in humans. Failure of a first sound pulse to suppress a second sound pulse-evoked startle reflex is indicative of tinnitus. This ASR assay has a similar sensitivity for changes in gap detection to a behavioral conditioning paradigm in which animals are trained to response to gaps in noise. Elevations in the ASR amplitude have been linked to the presence of hyperacusis, a disorder often comorbid with tinnitus. Thus, the assay probed possible influences of BK channel function on both tinnitus and hyperacusis.
(§3) General Procedure. Mice underwent sequential assessment of the effect of treatment (baseline; sodium salicylate; sodium salicylate with BMS-191011). Baseline measures were acquired before sodium salicylate (SS) administration so that mice served as their own controls. Tinnitus was induced transiently by intraperitoneal (i.p.) injection of 250 mg/kg SS (concentration: 25 mg/mL 0.9% saline). SS induces tinnitus in humans, and SS-treated animals share markers of tinnitus with humans. Behavioral or neurophysiological manifestations of tinnitus were assessed 2 hours following SS injection, and were completed within 3.5 hours. Jastreboff et al. reported that after an i.p. injection of SS in rats, the maximum levels in blood serum occurred 1.5 hours later, while the maximum levels in the perilymph and spinal fluid reached maximum levels within 2-4 hours. However, behavioral manifestations of tinnitus are observed up to 48 hours following administration (cite). […]
Behavioral Assays. Behavioral assessment were performed as described previously (Longenecker and Galazyuk, 2011; Lowe and Walton, 2015), and as briefly outlined below. The animals were acclimated to the testing room by placing the home cage in the testing room 30 min prior to testing. The acoustic startle response (ASR), a transient motor response to a startle eliciting stimulus (SES), was converted to voltage by placing mice on a custom-built platform connected to piezoelectric transducers located inside a sound attenuated chamber. SESs were 20-ms Gaussian broadband noise bursts (1-ms rise/fall time), filtered at 500 Hz-40 kHz. To measure threshold and amplitude of the ASR, the intensity of the SES was varied between 55-115 dB SPL. Ten trials were run for each stimulus in order to acquire the startle input-output function.

Series [2] relates to young adult CBA/CaJ mice. The series can be described thus: Gap pre-pulse inhibition of the acoustic startle (GPIAS), Gap-PPI, SS-induced tinnitus. How it is done: as §1, §2, §3
Modification of the ASR by stimuli placed before the SES is typically observed as a reduction in startle amplitude or pre-pulse inhibition (Hoffman and Ison, 1980; Ison and Hoffman, 1983). To probe the tinnitus percept (Longenecker and Galazyuk, 2012; Turner, 2007), Turner and colleagues used a relatively long silent gap imbedded in an ongoing narrow band noise (NBN) placed before the SES; various center frequencies of the NBN were used. The paradigm as a whole is referred to as the gap pre-pulse inhibition of the acoustic startle (GPIAS). The silent gap is demonstrably perceived; but, if the tinnitus pitch is in the region of the pitch of the ongoing NBN, the animal will presumably be impaired at detecting the gap (Turner, et al 2007). The presence of tinnitus is then indicated by a reduction in pre-pulse inhibition to the gap stimulus, or Gap-PPI, when the gap carrier pitch is near the tinnitus frequency (Turner, 2007). To perform the GPIAS assay, in this study the SES (presented at 100 dB SPL) was preceded by a 150-ms, 70-dB narrow band noise (⅓ octave) centered at 6, 12, 16, 20, or 24 kHz. During gap trials, a 50-ms silent gap was inserted 100 ms before the SES. Ten trials of each stimulus were presented to obtain the Gap PPI function.

The next series deals with CBA/CaJ mice. The series can be described thus: Auditory brainstem response (ABR) recordings before and after SS. The procedure:
General Procedure. Mice underwent sequential assessment of the effect of treatment (baseline; sodium salicylate; sodium salicylate with BMS-191011). Baseline measures were acquired before sodium salicylate (SS) administration so that mice served as their own controls. Tinnitus was induced transiently by intraperitoneal (i.p.) injection of 250 mg/kg SS (concentration: 25 mg/mL 0.9% saline). SS induces tinnitus in humans, and SS-treated animals share markers of tinnitus with humans. Behavioral or neurophysiological manifestations of tinnitus were assessed 2 hours following SS injection, and were completed within 3.5 hours. Jastreboff et al. reported that after an i.p. injection of SS in rats, the maximum levels in blood serum occurred 1.5 hours later, while the maximum levels in the perilymph and spinal fluid reached maximum levels within 2-4 hours. However, behavioral manifestations of tinnitus are observed up to 48 hours following administration (cite). BMS-191011 (Sigma Aldrich) was administered i.p. (0.5 mg/kg) or topically (1 μL of 1-10 μM) at the dura over the auditory midbrain.
ABR Assays. To obtain an electrophysiological measure of auditory evoked activity in the auditory nerve and brainstem, ABR assays were performed as described previously (Longenecker and Galazyuk, 2011; Lowe and Walton, 2015), and as briefly outlined below. Animals were anesthetized with i.p. administration of ketamine (120 mg/kg) and xylazine (10 mg/kg). Respiration was monitored during testing and used to guide administration of supplemental anesthesia. Body temperature was kept constant at 37° C. using a feedback-controlled heating pad (Physitemp TCAT2-LV Controller, Clifton, NJ).
ABRs were recorded using BioSig software in a soundproof booth lined with echo-attenuating acoustic foam. ABRs were evoked by 256 tone burst stimuli. Tone bursts were 3 msec in duration (1-ms rise/fall time, alternating polarity) presented at 6, 12, 16, 20, 24, and 36 kHz at a rate of 29 per second, attenuated in 5 dB steps from 80 dB SPL to 15 dB below threshold or 5 dB SPL, whichever was lower. Threshold was determined by visual inspection as the lowest intensity level which produced a defined peak in two replicates. Peaks 1-5 (P1-5) were detected and measured in the ABR waveforms using custom designed MATLAB software.

For a further series, the system named is IC of awake CBA/CaJ mice. The series can be described thus: Multi-channel neurophysiological recordings in the inferior colliculus (IC, auditory midbrain). Type of series: in vivo, mouse. The procedure:
IC neurophysiological recordings. Surgery and extracellular recordings were collected and analyzed by a method identical to a procedure used in a previous study. The right IC was located stereotaxically and exposed via a small (<1.0 mm) craniotomy. Prior to recording, chlorprothixene (Taractin®, 5-12 μl/g i.m.) was administered to prevent involuntary movement via inhibition of parasympathetic nerve impulses. The animal was then secured in a custom stereotaxic frame (Newport-Klinger) in a heated (34° C.) chamber lined with sound-absorbing foam (Sonex®). Multi-unit extracellular activity was recorded using vertically oriented single shank silicon acute penetrating 16-channel electrodes with an impedance ranging from 1.2 to 2.1 MΩ (Type-A, 3 mm×100 μm; NeuroNexus Technologies). Excitatory frequency response areas (eFRAs) from all active channels were acquired simultaneously using 2 to 64 kHz, 25 ms (5 ms rise/fall) tone burst stimuli presented at 0 to 80 dB SPL in 5 dB steps. A total of 2125 frequency and intensity combinations were presented pseudo-randomly five times each at a rate of 10/s. The change in the driven response due to treatment was assessed via maximum number of spikes per stimulus within the boundary of each eFRA.

In another series the target is BK channel (Homo sapiens, UniProt Q12791). As to conditions: relative to Maxipost; cited from earlier work.
Sequence of BK channel (Q12791 whole entry, species assumed): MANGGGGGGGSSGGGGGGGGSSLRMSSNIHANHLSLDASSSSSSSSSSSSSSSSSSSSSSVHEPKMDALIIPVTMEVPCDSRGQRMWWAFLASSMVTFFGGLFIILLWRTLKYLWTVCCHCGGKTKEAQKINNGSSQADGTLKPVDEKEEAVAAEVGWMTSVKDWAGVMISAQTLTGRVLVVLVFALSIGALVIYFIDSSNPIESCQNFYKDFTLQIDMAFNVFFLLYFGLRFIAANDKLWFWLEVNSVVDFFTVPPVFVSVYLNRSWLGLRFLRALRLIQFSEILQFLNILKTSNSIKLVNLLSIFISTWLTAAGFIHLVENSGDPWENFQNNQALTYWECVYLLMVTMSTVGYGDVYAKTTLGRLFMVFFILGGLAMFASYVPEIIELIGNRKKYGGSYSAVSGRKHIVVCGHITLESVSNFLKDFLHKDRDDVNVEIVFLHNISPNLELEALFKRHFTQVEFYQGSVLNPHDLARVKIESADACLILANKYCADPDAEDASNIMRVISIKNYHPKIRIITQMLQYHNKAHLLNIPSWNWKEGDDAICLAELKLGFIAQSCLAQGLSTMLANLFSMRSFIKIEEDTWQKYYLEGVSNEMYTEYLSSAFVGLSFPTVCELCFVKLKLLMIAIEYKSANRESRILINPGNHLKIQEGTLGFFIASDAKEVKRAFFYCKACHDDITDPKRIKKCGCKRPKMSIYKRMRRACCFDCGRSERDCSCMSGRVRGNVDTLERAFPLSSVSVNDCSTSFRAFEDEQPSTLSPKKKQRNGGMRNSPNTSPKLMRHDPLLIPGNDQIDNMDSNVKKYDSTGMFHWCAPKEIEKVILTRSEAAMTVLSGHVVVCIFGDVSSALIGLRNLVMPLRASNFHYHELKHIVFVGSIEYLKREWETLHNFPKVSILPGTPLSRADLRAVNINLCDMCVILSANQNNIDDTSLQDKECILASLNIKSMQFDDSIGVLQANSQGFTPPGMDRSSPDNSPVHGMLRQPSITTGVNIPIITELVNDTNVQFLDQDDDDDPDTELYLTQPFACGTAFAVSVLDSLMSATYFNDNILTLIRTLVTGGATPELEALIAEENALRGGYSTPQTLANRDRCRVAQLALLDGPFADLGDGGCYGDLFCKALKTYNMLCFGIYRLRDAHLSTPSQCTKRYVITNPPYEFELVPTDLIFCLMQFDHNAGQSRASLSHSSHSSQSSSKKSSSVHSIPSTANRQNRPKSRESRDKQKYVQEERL
The conditions of series [3]: in vivo; cited from earlier work.
The test system of another series is animals. As to conditions: cited from earlier work.
For series [4] the following is noted: cited from earlier work.
Where [5] appears, read: BMS-191011 after SS, 12, 16, 20, 24 kHz tones.
The mark [6] stands for this setting: BMS-191011 after SS, 60 dB tones.
[7] abbreviates: SS 250 mg/kg i.p., 12-20 kHz stimuli.
Setting [8] is: rats, after i.p. injection, Jastreboff et al.

SMILES strings stand for the structures. Entries after “also recorded” stand apart in the source; their conditions may differ.

Turning to `O=c1oc(-c2ccc(C(F)(F)F)cc2)nn1Cc1cc(Cl)ccc1O` [BMS-191011, 3-[(5-chloro-2-hydroxyphenyl)methyl]-5-[4-(trifluoromethyl)phenyl]-1,3,4-oxadiazol-2(3H)-one], the “ASR amplitude after SS treatment” value in the series on young adult CBA/CaJ mice [1] (Example 1, mouse model, SS 2 hours before, BMS191011 i.p. 5 mg/kg) is “did not appear to return this toward baseline”. The “SS-induced increase in startle amplitude intensity-response function” value in the series with young adult CBA/CaJ mice [1] (Example 2, BMS-191011 i.p. after SS 250 mg/kg, 1 hour before testing, N=6) is “did not reverse the effects of SS administration; also recorded: not significantly altered”. Besides, the “startle amplitudes, compound administered alone” value with young adult CBA/CaJ mice [1] (Example 2, without SS) is reported as “did not alter startle amplitudes”. Moreover, the “Gap-PPI for stimuli within the tinnitus percept” value in the series with young adult CBA/CaJ mice [2] (Example 1, 16 kHz region, after SS, BMS191011 i.p. 5 mg/kg) is given as “returned Gap-PPI to baseline levels”. In addition, the “% Gap PPI, 12-20 kHz carriers” value in the series on young adult CBA/CaJ mice [2] (Example 2, BMS-191011 after SS 250 mg/kg, N=6) was “returned SS-suppressed Gap-PPIs to baseline levels”. For the same molecule, the “Gap-PPI, 24 kHz carrier” value in the series with young adult CBA/CaJ mice [2] (Example 2, BMS-191011 after SS, outside expected tinnitus range) was “no effect on Gap-PPI”. Besides, the “Gap-PPI functions, compound administered alone” value in the series with young adult CBA/CaJ mice [2] (Example 2, without SS) was “not significantly altered from baseline”. In addition, in the series with CBA/CaJ mice (BMS-191011 after SS), the “effect of SS on ABR P2 amplitudes” value is “did not substantively alter; also recorded: did not significantly alter the effect of SS treatment” and the “effect of SS on ABR P4 amplitudes” value is given as “did not substantively alter; also recorded: did not significantly alter the effect of SS treatment”. Moreover, in the series with CBA/CaJ mice (BMS-191011 after SS, 1 hour before ABR recordings), the “SS-induced ABR threshold shift” value is “did not significantly alter; also recorded: not further altered”. Besides, in the series with CBA/CaJ mice (setting [5]), the “SS-induced decrease in ABR P1 amplitudes” value is reported as “did not significantly alter the effect of SS treatment” and the “SS-induced shift in ABR P1 latencies” value is given as “did not significantly alter; also recorded: minimally altered the effect of SS treatment”. Moreover, in the series on CBA/CaJ mice (setting [6]), the “SS-increased P2/P1 amplitude ratio” value was “did not substantively alter; also recorded: unaltered” and the “SS-increased P4/P1 amplitude ratio” value was “unaltered”. Also, in the series with IC of awake CBA/CaJ mice (Example 1, control mice, local administration (topical application over the dura)), the “sound-evoked activity in the IC” value is given as “suppressed sound-evoked activity”. In addition, in the series with IC of awake CBA/CaJ mice (mice not given SS, topical 1 μL of 1-10 μM), the “spontaneous activity (spontaneous spikes per 25 ms)” value is on record as “remained unchanged; also recorded: no significant change”. In the series with IC of awake CBA/CaJ mice (mice not given SS, topical 1 μL of 1-10 μM, hours 2-4 after treatment), the “reduction of sound-evoked activity (maximum number of spikes evoked by a tone)” value is reported as around 50%. Also, the “time after administration by which suppression of sound-evoked activity (maximal spikes per 25 ms stimulus) is significant” value in the series with IC of awake CBA/CaJ mice (mice not given SS, topical at the dura, 1 μL of a 1-10 μM solution) was at most 1 h. At BK channel, the “affinity and specificity for the BK channel compared with Maxipost” value is “higher affinity and specificity”. In addition, the brain availability entry in series [3] is “high brain-availability”. Also, the “cardiac effects (heart rate, blood pressure)” value in the series with animals (animals) is “without signs of negative cardiac effects”. In the series on animals (in vivo), the tolerability in animals entry was “well-tolerated”.
Turning to `O=C([O-])c1ccccc1O.[Na+]` [SS, sodium salicylate], in the series with young adult CBA/CaJ mice [1] (SS 250 mg/kg i.p. alone), the “startle amplitude intensity-response function relative to baseline” value is reported as “increased the intensity-response function; also recorded: significant increase in startle amplitude”. For the same molecule, in the series on young adult CBA/CaJ mice [2] (SS 250 mg/kg i.p. alone), the “Gap-PPI relative to baseline, 12-20 kHz carrier” value was “reduced Gap-PPI; also recorded: significant decrease in % Gap PPI” and the “Gap-PPI, 24 kHz carrier” value is “did not influence Gap-PPI”. For the same molecule, in the series with CBA/CaJ mice (SS 250 mg/kg i.p.), the “ABR P1 amplitudes relative to baseline” value is “significantly reduced P1 amplitudes” and the “ABR P1 latencies relative to baseline” value was “longer P1 latencies; also recorded: significantly delayed P1 latencies”. In the series on CBA/CaJ mice (setting [7]), the “P2/P1 amplitude ratio relative to baseline” value is “substantially increased; also recorded: significantly increased the P2/P1 ratio” and the “P4/P1 amplitude ratio relative to baseline” value is “still increased; also recorded: significantly increased the P4/P1 ratio”. Besides, the “ABR P2 amplitude relative to baseline” value in the series with CBA/CaJ mice (SS 250 mg/kg i.p., 12-20 kHz, higher intensities (60-80 dB SPL)) is “either increased or stayed the same; also recorded: increased P2 amplitude at 80 dB”. In the series with CBA/CaJ mice (SS 250 mg/kg i.p., across the frequency spectrum), the “increase in ABR thresholds” value is recorded as around 20 dB. Besides, the “time for which behavioral manifestations of tinnitus are observed after administration” value in series [4] (following administration) is listed as “up to 48 hours”. For the same molecule, in series [4] (setting [8]), the “time of maximum levels in blood serum” value is 1.5 h; the “time of maximum levels in perilymph and spinal fluid” value is 2 to 4 h.

The record behind these values is US12194026B2, “Drug for treating tinnitus” (UNIVERSITY OF SOUTH FLORIDA, priority 2018, dated 2025).
